Measured values: PMC9782603 (Viruses, 2022)
Read-outs that look alike come from different tables or passages of the source.

Legend:
[1] = tested on: HCV GT 1b subgenomic reporter replicon (strain Con1); experiment: HCV GT 1b subgenomic replicon luciferase antiviral assay in Huh5-2 cells; format: cell-based; details: Hepatitis C virus, GT1B, Huh-5-2, 72 h, read-out: EC50 HCV Replicon 1b
[2] = tested on: HCV GT 3a (strain S52) replicon; experiment: HCV GT 3a subgenomic replicon luciferase antiviral assay in Huh7.5-3a cells; format: cell-based; details: Hepatitis C virus, GT3A, 72 h, read-out: EC50 HCV Replicon 3a
[3] = tested on: HCV GT 4a (strain ED43) replicon; experiment: HCV GT 4a subgenomic replicon luciferase antiviral assay in Huh7.5-4a cells; format: cell-based; details: Hepatitis C virus, GT4A, 72 h, read-out: EC50 HCV Replicon 4a
[4] = alamarBlue reduction cytotoxicity assay in replicon cells; format: cell-based; details: human, HCV Replicon 1b cells
HCV GT 2a = experiment: Activity against HCV GT 2a (data not shown); format: cell-based
NS5B = details: cited from earlier work
HCV GT-1b replicon = HCV GT-1b replicon luciferase reporter assay (n ≥ 2); cited from earlier work
[5] = Huh5-2, GT 1b (Con1), F-Luc, 3 days
[6] = Huh7.5-3a, GT 3a (S52), F-Luc, 3 days
[7] = Huh7.5-4a, GT 4a (ED43), F-Luc, 3 days
[8] = reported NS5B TP-2 inhibitors, Figure 1

O=C(O)c1cc([N+](=O)[O-])ccc1Nc1ccccc1 [1a, 5-nitro-2-(phenylamino)-benzoic acid]
EC50 [1, 5]: > 10 µM | EC50 [2, 6]: > 10 µM | EC50 [3, 7]: > 10 µM | CC50 at 3 days [4]: > 200 µM

Cc1cccc(Nc2ccc([N+](=O)[O-])cc2C(=O)O)c1 [1b, 5-nitro-2-(m-tolylamino)benzoic acid]
EC50 [1, 5]: > 10 µM | EC50 [2, 6]: > 10 µM | EC50 [3, 7]: > 10 µM | CC50 at 3 days [4]: > 200 µM

NC(=O)c1cc([N+](=O)[O-])ccc1Nc1ccccc1 [3a, 5-nitro-2-(phenylamino)benzamide]
EC50 [1, 5]: > 10 µM | EC50 [2, 6]: > 10 µM | EC50 [3, 7]: > 10 µM | CC50 at 3 days [4]: 70.69 ± 0.04 µM

Cc1cccc(Nc2ccc([N+](=O)[O-])cc2C(N)=O)c1 [3b, 5-Nitro-2-(m-tolylamino) benzamide]
EC50 [1, 5]: > 10 µM | EC50 [2, 6]: > 10 µM | EC50 [3, 7]: > 10 µM | CC50 at 3 days [4]: 161.3 ± 0.07 µM | melting point: 188 to 190 °C

O=c1ncn(-c2ccccc2)c2ccc([N+](=O)[O-])cc12 [4a, 6-Nitro-1-phenylquinazolin-4(1H)-one]
EC50 [1, 5]: > 10 µM | EC50 [2, 6]: > 10 µM | EC50 [3, 7]: > 10 µM | CC50 at 3 days [4]: > 200 µM | melting point: 246 to 248 °C

Cc1cccc(-n2cnc(=O)c3cc([N+](=O)[O-])ccc32)c1 [4b, 6-Nitro-1-(m-tolyl)quinazolin-4(1H)-one]
EC50 [1, 5]: > 10 µM | EC50 [2, 6]: > 10 µM | EC50 [3, 7]: > 10 µM | CC50 at 3 days [4]: 64.9 ± 0.03 µM | melting point: 185 °C

Nc1ccc2c(c1)c(=O)ncn2-c1ccccc1 [5a, 6-Amino-1-phenylquinazolin-4(1H)-one]
EC50 [1, 5]: 9.84 ± 0.57 µM | EC50 [2, 6]: > 10 µM | EC50 [3, 7]: > 10 µM | CC50 at 3 days [4]: > 200 µM | melting point: 293 to 295 °C

Cc1cccc(-n2cnc(=O)c3cc(N)ccc32)c1 [5b, 6-Amino-1-(m-tolyl)quinazolin-4(1H)-one]
EC50 [1, 5]: > 10 µM | EC50 [2, 6]: > 10 µM | EC50 [3, 7]: > 10 µM | CC50 at 3 days [4]: > 200 µM | melting point: 288 to 290 °C

O=C(CCl)Nc1ccc2c(c1)c(=O)ncn2-c1ccccc1 [6a, 2-Chloro-N-(4-oxo-1-phenyl-1,4-dihydroquinazolin-6-yl)acetamide]
EC50 [1, 5]: > 10 µM | EC50 [2, 6]: > 10 µM | EC50 [3, 7]: > 10 µM | CC50 at 3 days [4]: 104.2 ± 0.03 µM | melting point: < 300 °C

Cc1cccc(-n2cnc(=O)c3cc(NC(=O)CCl)ccc32)c1 [6b, 2-Chloro-N-(4-oxo-1-(m-tolyl)-1,4-dihydroquinazolin-6-yl)acetamide]
EC50 [1, 5]: > 10 µM | EC50 [2, 6]: > 10 µM | EC50 [3, 7]: > 10 µM | CC50 at 3 days [4]: 143 ± 14.2 µM | melting point: 290 °C

Cc1ccc(OCC(=O)Nc2ccc3c(c2)c(=O)ncn3-c2ccccc2)cc1 [7a, N-(4-Oxo-1-phenyl-1,4-dihydroquinazolin-6-yl)-2-(p-tolyloxy)acetamide]
EC50 [1, 5]: > 10 µM | EC50 [2, 6]: > 10 µM | EC50 [3, 7]: > 10 µM | CC50 at 3 days [4]: 84.7 ± 14 µM | melting point: 220 °C

O=C(COc1ccc(Cl)cc1)Nc1ccc2c(c1)c(=O)ncn2-c1ccccc1 [7b, 2-(4-Chlorophenoxy)-N-(4-oxo-1-phenyl-1,4-dihydroquinazolin-6-yl)acetamide]
EC50 [1, 5]: > 10 µM | EC50 [2, 6]: > 10 µM | EC50 [3, 7]: > 10 µM | CC50 at 3 days [4]: 154 ± 3.71 µM | melting point: 262 °C

Cc1cc(OCC(=O)Nc2ccc3c(c2)c(=O)ncn3-c2ccccc2)ccc1Cl [7c, 2-(4-Chloro-3-methylphenoxy)-N-(4-oxo-1-phenyl-1,4-dihydroquinazolin-6-yl)acetamide]
EC50 [1, 5]: > 10 µM | EC50 [2, 6]: > 10 µM | EC50 [3, 7]: > 10 µM | CC50 at 3 days [4]: 75.2 ± 9.24 µM | melting point: 255 °C

Cc1ccc(OCC(=O)Nc2ccc3c(c2)c(=O)ncn3-c2cccc(C)c2)cc1 [7d, N-(4-oxo-1-(m-tolyl)-1,4-dihydroquinazolin-6-yl)-2-(p-tolyloxy)acetamide]
EC50 [1, 5]: > 10 µM | EC50 [2, 6]: > 10 µM | EC50 [3, 7]: > 10 µM | CC50 at 3 days [4]: 50.1 ± 1.77 µM | melting point: 206 °C

Cc1cccc(-n2cnc(=O)c3cc(NC(=O)COc4ccc(Cl)cc4)ccc32)c1 [7e, 2-(4-Chlorophenoxy)-N-(4-oxo-1-(m-tolyl)-1,4-dihydroquinazolin-6-yl)acetamide]
EC50 [1, 5]: > 10 µM | EC50 [2, 6]: > 10 µM | EC50 [3, 7]: > 10 µM | CC50 at 3 days [4]: 47.6 ± 5.56 µM | melting point: 255 °C

Cc1cccc(-n2cnc(=O)c3cc(NC(=O)COc4ccc(Cl)c(C)c4)ccc32)c1 [7f, 2-(4-Chloro-3-methylphenoxy)-N-(4-oxo-1-(m-tolyl)-1,4-dihydroquinazolin-6-yl)acetamide]
EC50 [1, 5]: > 10 µM | EC50 [2, 6]: > 10 µM | EC50 [3, 7]: > 10 µM | CC50 at 3 days [4]: 105 ± 10.3 µM | melting point: 269 °C

Cc1nc(=O)c2cc([N+](=O)[O-])ccc2n1-c1ccccc1 [8a, 2-Methyl-6-nitro-1-phenylquinazolin-4(1H)-one]
EC50 [1]: > 10 µM | EC50 [2, 6]: > 10 µM | EC50 [3, 7]: > 10 µM | CC50 at 3 days [4]: > 200 µM | melting point: 260 to 262 °C

Cc1cccc(-n2c(C)nc(=O)c3cc([N+](=O)[O-])ccc32)c1 [8b, 2-Methyl-6-nitro-1-(m-tolyl)quinazolin-4(1H)-one]
EC50 [1]: > 10 µM | EC50 [2, 6]: > 10 µM | EC50 [3, 7]: > 10 µM | CC50 at 3 days [4]: 151 ± 5.41 µM | melting point: 258 to 260 °C

Cc1nc(=O)c2cc(N)ccc2n1-c1ccccc1 [9a, 6-Amino-2-methyl-1-phenylquinazolin-4(1H)-one]
EC50 [1]: > 10 µM | EC50 [2, 6]: > 10 µM | EC50 [3, 7]: > 10 µM | CC50 at 3 days [4]: > 200 µM | melting point: 268 to 270 °C

Cc1cccc(-n2c(C)nc(=O)c3cc(N)ccc32)c1 [9b, 6-Amino-2-methyl-1-(m-tolyl)quinazolin-4(1H)-one]
EC50 [1, 5]: > 10 µM | EC50 [2, 6]: > 10 µM | EC50 [3, 7]: > 10 µM | CC50 at 3 days [4]: > 200 µM | melting point: 270 to 273 °C

Cc1nc(=O)c2cc(NC(=O)CCl)ccc2n1-c1ccccc1 [10a, 2-Chloro-N-(2-methyl-4-oxo-1-phenyl-1,4-dihydroquinazolin-6-yl)acetamide]
EC50 [1, 5]: > 10 µM | EC50 [2, 6]: > 10 µM | EC50 [3, 7]: > 10 µM | CC50 at 3 days [4]: 87.47 ± 0.24 µM | melting point: 285 °C

Cc1cccc(-n2c(C)nc(=O)c3cc(NC(=O)CCl)ccc32)c1 [10b, 2-Chloro-N-(2-methyl-4-oxo-1-(m-tolyl)-1,4-dihydroquinazolin-6-yl)acetamide]
EC50 [1, 5]: > 10 µM | EC50 [2, 6]: > 10 µM | EC50 [3, 7]: > 10 µM | CC50 at 3 days [4]: 177.2 ± 0.03 µM | melting point: 280 °C

Cc1cc(OCC(=O)Nc2ccc3c(c2)c(=O)nc(C)n3-c2ccccc2)ccc1Cl [11c, 2-(4-Chloro-3-methylphenoxy)-N-(2-methyl-4-oxo-1-phenyl-1,4-dihydroquinazolin-6-yl)acetamide]
EC50 [1, 5]: > 10 µM | EC50 [2, 6]: > 10 µM | EC50 [3, 7]: > 10 µM | CC50 at 3 days [4]: > 200 µM | melting point: 271 °C

Cc1ccc(OCC(=O)Nc2ccc3c(c2)c(=O)nc(C)n3-c2cccc(C)c2)cc1 [11d, N-(2-Methyl-4-oxo-1-(m-tolyl)-1,4-dihydroquinazolin-6-yl)-2-(p-tolyloxy)acetamide]
EC50 [1, 5]: > 1 µM | EC50 [2, 6]: > 10 µM | EC50 [3, 7]: > 10 µM | CC50 at 3 days [4]: 22.7 ± 2.23 µM | melting point: 270 °C

Cc1cccc(-n2c(C)nc(=O)c3cc(NC(=O)COc4ccc(Cl)cc4)ccc32)c1 [11e, 2-(4-Chlorophenoxy)-N-(2-methyl-4-oxo-1-(m-tolyl)-1,4-dihydroquinazolin-6-yl)acetamide]
EC50 [1, 5]: 6.24 ± 0.04 µM | EC50 [2, 6]: 8.4 ± 0.15 µM | EC50 [3, 7]: 15.2 ± 0.29 µM | CC50 at 3 days [4]: 36.6 ± 4.19 µM | activity against GT 2a (HCV GT 2a): no activity | melting point: 283 °C

Cc1cccc(-n2c(C)nc(=O)c3cc(NC(=O)COc4ccc(Cl)c(C)c4)ccc32)c1 [11f, 2-(4-Chloro-3-methylphenoxy)-N-(2-methyl-4-oxo-1-(m-tolyl)-1,4-dihydroquinazolin-6-yl)acetamide]
EC50 [1, 5]: > 1 µM | EC50 [2, 6]: > 10 µM | EC50 [3, 7]: > 10 µM | CC50 at 3 days [4]: 27.4 ± 2.71 µM | melting point: 290 °C

COC(=O)N[C@H](C(=O)N1CCC[C@H]1c1nc(-c2ccc(-c3ccc(-c4c[nH]c([C@@H]5CCCN5C(=O)[C@@H](NC(=O)OC)C(C)C)n4)cc3)cc2)c[nH]1)C(C)C [Daclatasvir, reference compound]
EC50 [1, 5]: 2.66e-05 µM | EC50 [2]: 2.12e-05 µM | EC50 [3]: 0.008 ± 0.001 µM | CC50 at 3 days [4]: 17.7 µM

CCc1ccc(/C=C2\SC(N[C@H](C(=O)O)c3ccc(F)cc3)=NC2=O)o1 [III]
IC50 (NS5B; enzymatic assays): 3 µM

CC1CCC(C(=O)N(c2cc(-c3ccccc3)sc2C(=O)O)C(C)C)CC1 (centres unmarked) [IV]
IC50 (NS5B; [8]): 0.028 µM

Cc1ccc(S(=O)(=O)Nc2cc(-c3ccc(F)cc3)sc2C(=O)O)cc1 [I]
IC50 (NS5B; [8]): 0.29 µM

O=c1ncn(Cc2c(F)cc(F)cc2F)c2ccc(Oc3cccc(-c4ccccn4)c3C(F)(F)F)cc12 [VIII]
EC50 (HCV GT-1b replicon): 0.31 µM

CC1CCC(C(=O)N(c2ccc(Oc3ncccc3C(F)(F)F)cc2C(=O)O)C(C)C)CC1 (centres unmarked) [VI]
EC50 (HCV GT-1b replicon): 0.095 µM | IC50 (NS5B; [8]): 0.08 µM

Cc1ccc(S(=O)(=O)Nc2ccc(Oc3ccccc3)cc2C(=O)O)cc1 [V]
EC50 (HCV GT-1b replicon): > 30 µM | IC50 (NS5B; [8]): 0.22 µM
